{"source": "patent US20210052537A1", "about": "“COLITIS AMELIORATING AGENT” (ASTA PHARMACEUTICALS, CO., LTD., priority 2018, published 2021)", "system": "Oxa-induced colitis", "experiment": "Oxazolone (Oxa)-induced colitis mouse model", "type": "in vivo", "conditions": "for Colon length / Colon weight (wet weight per length): 6 days, mean ± SD", "description": "In this Example, mouse models to which oxazolone (4-ethoxymethylene-2-phenyl-2-oxazolin-5-on, hereinafter, Oxa) is used will be described as colitis models. When Oxa was first applied to skin, subsequently administered enterally after a certain period of time, an experimental ulcerative colitis model similar to human ulcerative colitis in terms of not only symptoms such as suppression of body weight increase, blood in stools, and anemia and formation of colon erosion but also immune cells was built (Non-Patent Literature 4). A suppression effect of Compound X on colitis in such a model as the test model showing pathological conditions more similar to human ulcerative colitis was examined. For the examination items, the length and weight of the colon were examined as changes in colon properties are widely known to occur also in this model.\nFor treatment, Balb/c, male mice were purchased from CHARLES RIVER LABORATORIES JAPAN, INC. in accordance with previous literature (Non-Patent Literature 5) and 8-week old mice with no abnormal general conditions during quarantine and acclimation period were used for the experiment. After acclimation, the animals were divided in such a way as to be 1 mouse per cage. Oxa used in the experiment was purchased from Sigma.\nFur at back of the neck was shaved in an area of 1.5×1.5 cm under anesthesia, and 150 μL (a 100% ethanol solution) of 3% (wt/vol) Oxa was added using a pipette and applied between the shoulders to sensitize (Day 1). The mice were kept under such a typical breeding environment, fasted for 16 hours from Day 7 (water supply was continued), and subsequently on Day 8 100 μL of a solution of 1% (wt/vol) Oxa in 50% ethanol was transanally administered into the rectum (3.5 cm from the anus) using a catheter under anesthesia. Hereinafter, the above treatment is described as Oxa treatment. After treatment, typical feeding breeding was carried out.\nStarting on the day following intrarectal administration of Oxa, test substances were orally administered (once daily, for 6 days). 5-Aminosalicylic acid (hereinafter 5-ASA, Tokyo Chemical Industry, Co., Ltd.) and prednisolone (hereinafter, PSL, Sigma), which are anti-inflammatory agents used for treating ulcerative colitis, were used as positive controls for the test. After group division, each of the test substances of Table 6 was suspended in a solution of 0.5% sodium carboxymethyl cellulose (hereinafter, CMC, Nacalai Tesque Inc.) in such a way as to be each treatment of Table 6 and orally administered once daily. […] These control groups, Groups 1 and 2, were orally administered, as the test substance, with the 0.5% CMC solution which was used as the medium.\nThe test started with 6 mice in Group No. 1 and 9 mice each in Group Nos. 2 to 6. After the treatment started, death of animals in Group Nos. 2 to 6 due to the cause considered enteritis from Oxa treatment was observed and thus 6 mice in Group Nos. 1 and 3, and 5 mice in Group Nos. 2 and 6, and 7 mice in Group Nos. 4 and 5 were finally used for analysis.\nIt is generally acknowledged as a known fact that Oxa treatment causes colon tissue changes such as the length of colon is shortened while the weight increases. For evaluating the therapeutic effect of Compound X, the length and weight of the colon were measured. The mice were euthanized under anesthesia on day 7 of Oxa treatment and dissected to remove the colon. The removed colon was quickly measured for a length in a relaxed state. Subsequently, feces in the intestinal tract were removed and sufficiently washed with phosphate buffered saline (Wako Pure Chemical Industries, Ltd.) and measured for a wet weight.", "key": {"[1]": {"conditions": "Group Nos. 3 to 6 of Table 7, in words"}, "[2]": {"conditions": "Oxa treatment + high dose 10 mg/kg/day oral, day 7, 10 mg/kg/day"}}, "note": "Values joined by “and” are separate entries in the source; they are usually repeats but may differ in a detail not shown here. Identical values can stand only once.", "data": [{"smiles": "CC1=C(/C=C/C(C)=C/C=C/C(C)=C/C=C/C=C(C)/C=C/C=C(C)/C=C/C2=C(C)C(=O)[C@@H](OC(=O)CNC(=O)NCCCC(=O)O)CC2(C)C)C(C)(C)C[C@H](OC(=O)CNC(=O)NCCCC(=O)O)C1=O.NCCCC[C@H](N)C(=O)O.NCCCC[C@H](N)C(=O)O", "note": "[Compound X, 4-(3-{4-[18-(4(S)-[3-(3-Carboxypropyl)ureidoacetoxy]-2,6,6-trimethyl-3-oxocyclohexa-1-enyl)-3,7,12,16-tetramethyloctadeca-1(E),3(E),5(E),7(E),9(E),11(E),13(E),15(E),17(E)-nonaenyl]-3,5,5-trimethyl-2-oxocyclohex-3-enyl-1(S)-oxycarbonylmethyl}ureido)butyric acid dilysine salt]", "values": [{"measurement": "Colon length compared with Vehicle group", "setting": "[1]", "value": "longer length of the colon than Vehicle group"}, {"measurement": "Colon wet weight compared with Vehicle group", "setting": "[1]", "value": "suppressed weight increases compared with Vehicle group"}, {"measurement": "Colon length", "setting": "[2]", "value": "8.74 cm and 8.74 ± 0.48 cm"}, {"measurement": "Colon weight (wet weight per length)", "setting": "[2]", "value": "2.80 mg/mm and 2.80 ± 0.43 mg/mm"}, {"measurement": "Colon length", "setting": "Oxa treatment + low dose 3 mg/kg/day oral, Balb/c mice, day 7 of Oxa treatment, 3 mg/kg/day", "value": "8.72 cm and 8.72 ± 0.50 cm"}, {"measurement": "Colon weight (wet weight per length)", "setting": "Oxa treatment + low dose 3 mg/kg/day oral, day 7, 3 mg/kg/day", "value": "3.44 mg/mm and 3.44 ± 0.45 mg/mm"}]}]}
